Results: ChEMBL document CHEMBL1201862, “PubChem BioAssay data set” (2004)
Calls of active or inactive are those of the source.

Tests used:
A-375 = assay: A375 melanoma cell viability reduction, dose response, counter-screen for MITF modulator project, cherry-pick samples, set 2 (AID 540335); assay type: functional, cell-based; details: Homo sapiens
[1] = cytotoxicity toward DRD oncogenic fibroblasts, dose response, cell-based, non-viral oncogenic, luminescence (AID 1934); assay type: functional; details: Homo sapiens
BJ [2] = assay: cytotoxicity toward BJ-TERT-LT-ST fibroblasts, dose response, cell-based, RAS-independent, luminescence (AID 1935); assay type: functional; details: Homo sapiens;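 further: BJ fibroblasts immortalized with TERT plus LT and ST oncogenes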
BJ [3] = assay: cytotoxicity toward BJ-TERT fibroblasts, dose response, cell-based, RAS-independent, luminescence (AID 1933); assay type: functional; details: Homo sapiens
BJ [4] = assay: cells; assay type: functional, cell-based; details: Homo sapiens
[5] = cytotoxicity in HEK-293T cells, dose response, cytotoxicity control for BCR NF-kB inhibitor project, luminescence, B-cell screen hits (AID 489021); assay type: functional, cell-based;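 further: HEK-293T cells carrying an NF-kB luciferase reporter; cells exposed to compound for about 14 hours before viability readout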
[6] = C. albicans growth with fluconazole, confirmation, fluorescence, retest (AID 2467); assay type: functional, cell-based
[7] = molecular target: T1, Microphthalmia-associated transcription factor (Homo sapiens, UniProt O75030); assay: TRPM1 promoter luciferase signal decrease, dose response, MITF inhibitor project, cell-based, SK-MEL-5, cherry-picked, set 3 (AID 493073); assay type: functional
T1 sequence (O75030 whole entry): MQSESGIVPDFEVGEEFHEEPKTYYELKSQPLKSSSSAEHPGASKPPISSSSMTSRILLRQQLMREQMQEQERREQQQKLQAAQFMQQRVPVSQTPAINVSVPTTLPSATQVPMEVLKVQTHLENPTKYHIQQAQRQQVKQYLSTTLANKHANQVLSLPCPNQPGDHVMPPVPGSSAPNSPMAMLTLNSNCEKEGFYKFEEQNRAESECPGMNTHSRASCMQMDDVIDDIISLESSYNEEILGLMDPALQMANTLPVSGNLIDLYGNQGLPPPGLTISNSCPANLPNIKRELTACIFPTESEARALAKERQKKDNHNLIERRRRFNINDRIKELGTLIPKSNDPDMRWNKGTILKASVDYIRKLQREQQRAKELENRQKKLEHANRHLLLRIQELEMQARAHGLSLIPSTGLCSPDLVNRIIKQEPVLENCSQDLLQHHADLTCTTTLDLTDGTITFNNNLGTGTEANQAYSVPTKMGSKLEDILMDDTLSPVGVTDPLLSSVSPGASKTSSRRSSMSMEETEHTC

INS1 = assay: beta cell apoptosis inhibitors, cytokine rescue, dose response, luminescence, retest (AID 449756); assay type: functional, cell-based; details: Rattus norvegicus;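 further: cell death triggered by IL-1 beta plus TNF-alpha plus IFN-gamma mixture; protective hits raise ATP signal compared with cytokine alone wells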
[8] = NIH-3T3 fibroblast cytotoxicity, dose response, cytotoxicity control, cell-based, fluorescence, Alamar Blue, secondary assay (AID 2327); assay type: functional;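 further: NIH-3T3 mouse fibroblasts cultured with fluconazole at 8 µg/mL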
[9] = molecular target: T2, Tyrosine-protein phosphatase non-receptor type 7 (Homo sapiens, UniProt P35236); assay: HePTP (PTPN7) phosphatase inhibitor potency, SAR follow-up, biochemical, set 2 (AID 449736); assay type: functional
T2 sequence (P35236 whole entry): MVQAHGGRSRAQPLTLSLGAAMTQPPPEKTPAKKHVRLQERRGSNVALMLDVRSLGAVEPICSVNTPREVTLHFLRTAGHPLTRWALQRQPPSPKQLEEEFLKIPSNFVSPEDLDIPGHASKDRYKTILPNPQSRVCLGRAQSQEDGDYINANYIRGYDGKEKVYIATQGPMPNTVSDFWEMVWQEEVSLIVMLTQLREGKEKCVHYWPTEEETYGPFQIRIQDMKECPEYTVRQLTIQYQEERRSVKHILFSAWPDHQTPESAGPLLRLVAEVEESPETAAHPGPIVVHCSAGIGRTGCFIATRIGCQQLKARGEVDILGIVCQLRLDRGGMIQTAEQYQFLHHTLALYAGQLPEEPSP

[10] = molecular target: T3, Tyrosine-protein phosphatase non-receptor type 22 (Homo sapiens, UniProt Q9Y2R2); assay: SAR LYP1 Fluorescent Assay using OMFP substrate for In Vitro dose response studies - Set 3. [Related pubchem assays (depositor defined):AID1779, AID1784, AID2140, AID2686]; assay type: functional
[11] = molecular target: T3, Tyrosine-protein phosphatase non-receptor type 22; assay: LYP (PTPN22) phosphatase inhibitor potency, SAR follow-up, biochemical, pCAP fluorogenic substrate, fluorescence, set 3 (AID 449727); assay type: functional
[12] = molecular target: Tyrosine-protein phosphatase non-receptor type 12 (Homo sapiens, UniProt Q05209); assay: SAR Selectivity Analysis of small molecule inhibitors of PEST using pCAP in a fluorescence assay. [Related pubchem assays (depositor defined):AID1779, AID1784, AID2135]; assay type: functional
[13] = molecular target: Dual specificity protein phosphatase 6 (Rattus norvegicus, UniProt Q64346); assay type: functional;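 further: confirmatory in vitro dose-response testing of MKP-3 inhibition; recombinant His-tagged MKP-3 made in E. coli BL21 with OMFP substrate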
[14] = molecular target: T2, Tyrosine-protein phosphatase non-receptor type 7; assay: redox-dependent HePTP inhibition, mechanism study, biochemical, fluorescence (AID 2068); assay type: functional
[15] = molecular target: T4, Short transient receptor potential channel 4 (Mus musculus, UniProt Q9QUQ5); assay: SAR Analysis for the identification of selective inhibits of the transient receptor potential cation channel C4 (TRPC4): Automated Electrophysiology_2. [Related pubchem assays (depositor defined):AID2256]; assay type: functional
T4 sequence (Q9QUQ5 whole entry): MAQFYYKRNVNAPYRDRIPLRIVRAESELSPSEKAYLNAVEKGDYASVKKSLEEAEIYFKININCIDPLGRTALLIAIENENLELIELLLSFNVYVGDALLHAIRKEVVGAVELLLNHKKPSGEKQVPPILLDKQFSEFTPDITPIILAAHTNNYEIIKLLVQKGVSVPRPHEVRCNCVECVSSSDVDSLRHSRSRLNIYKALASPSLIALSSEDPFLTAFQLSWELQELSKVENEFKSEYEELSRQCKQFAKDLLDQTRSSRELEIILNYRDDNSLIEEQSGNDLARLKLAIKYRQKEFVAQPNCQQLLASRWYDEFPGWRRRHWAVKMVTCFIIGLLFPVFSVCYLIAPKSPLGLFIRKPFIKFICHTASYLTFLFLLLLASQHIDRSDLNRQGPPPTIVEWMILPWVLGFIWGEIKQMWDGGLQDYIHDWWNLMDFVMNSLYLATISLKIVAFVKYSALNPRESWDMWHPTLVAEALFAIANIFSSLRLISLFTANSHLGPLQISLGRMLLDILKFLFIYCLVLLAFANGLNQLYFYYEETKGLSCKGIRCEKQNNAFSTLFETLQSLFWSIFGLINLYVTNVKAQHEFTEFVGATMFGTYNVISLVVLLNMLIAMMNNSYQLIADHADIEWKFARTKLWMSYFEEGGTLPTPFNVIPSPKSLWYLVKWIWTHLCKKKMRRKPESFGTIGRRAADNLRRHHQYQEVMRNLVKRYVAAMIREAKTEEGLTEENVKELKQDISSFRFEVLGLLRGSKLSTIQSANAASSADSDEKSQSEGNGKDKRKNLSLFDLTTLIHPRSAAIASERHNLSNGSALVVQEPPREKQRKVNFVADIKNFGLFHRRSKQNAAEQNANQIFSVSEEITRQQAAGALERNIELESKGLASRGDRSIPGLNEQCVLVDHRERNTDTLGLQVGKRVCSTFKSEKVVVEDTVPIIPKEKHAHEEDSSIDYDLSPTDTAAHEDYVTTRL

[16] = molecular target: T4, Short transient receptor potential channel 4; assay: TRPC4 inhibitor concentration-response, dose response, cell-based, HEK293 TRPC4/mu-opioid, DAMGO stimulus, Fluo-4 (AID 492994); assay type: functional
[17] = cytotoxicity in HMLE control line with eGFP shRNA, dose response, counter-screen for HMLE_sh_ECad selective toxicity project, cell-based, HMLE_sh_eGFP, luminescence (AID 463074); assay type: functional, Homo sapiens;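 further: HMLE human mammary epithelial cells expressing control shRNA against eGFP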
[18] = system: Streptococcus sp. 'group A'; assay: growth inhibition of control SK(-) GAS strain, dose response, counter-screen for streptokinase expression inhibitor project, luminescence, kanamycin, BacTiterGlo, confirmation (AID 1900); assay type: functional, organism-based
Streptococcus [19] = assay: Group A Streptococcus viability loss, dose response, counter-screen for streptokinase expression inhibitor project, luminescence, BacTiterGlo (AID 1915); assay type: functional, organism-based;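 further: potency for reduction of bacterial viability or growth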
Streptokinase A = molecular target: T5, Streptokinase A (Streptococcus pyogenes serotype M1, UniProt P10520); assay: S. pyogenes streptokinase expression inhibitors, potency, dose response, plasminogen activation absorbance, OD405 (AID 1914); assay type: functional, Streptococcus pyogenes M1 GAS;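 further: secreted streptokinase activity via plasminogen activation per viability signal from cell pellet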
T5 sequence (P10520 whole entry): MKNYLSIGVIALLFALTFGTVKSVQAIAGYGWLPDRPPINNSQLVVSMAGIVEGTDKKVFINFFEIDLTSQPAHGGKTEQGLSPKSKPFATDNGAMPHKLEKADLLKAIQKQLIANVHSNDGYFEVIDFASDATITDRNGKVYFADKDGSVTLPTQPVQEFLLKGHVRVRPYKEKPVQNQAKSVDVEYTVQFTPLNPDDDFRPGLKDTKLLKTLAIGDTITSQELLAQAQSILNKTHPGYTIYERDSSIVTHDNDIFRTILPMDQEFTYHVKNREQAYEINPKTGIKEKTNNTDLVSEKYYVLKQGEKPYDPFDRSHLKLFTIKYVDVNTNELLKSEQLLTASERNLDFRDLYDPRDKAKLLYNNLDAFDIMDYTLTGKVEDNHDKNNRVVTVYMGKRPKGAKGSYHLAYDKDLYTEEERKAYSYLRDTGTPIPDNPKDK

[20] = Luminescence Cell-Based Dose Retest to Confirm Inhibitors of Cancer Stem Cells. [Related pubchem assays (depositor defined):AID2717, AID2721]; assay type: functional; details: Homo sapiens
Streptococcus [21] = assay: Luminescence Microorganism-Based Dose Response Follow up to Identify Compounds Cytotoxic to Streptococcus. [Related pubchem assays: 1677 (Project Summary), 1915, 1914, 1902 (Retest at Dose), 1900 (Counter Screen), 1662 (Primary HTS)]; assay type: functional, organism-based

T3 sequence (Q9Y2R2 whole entry): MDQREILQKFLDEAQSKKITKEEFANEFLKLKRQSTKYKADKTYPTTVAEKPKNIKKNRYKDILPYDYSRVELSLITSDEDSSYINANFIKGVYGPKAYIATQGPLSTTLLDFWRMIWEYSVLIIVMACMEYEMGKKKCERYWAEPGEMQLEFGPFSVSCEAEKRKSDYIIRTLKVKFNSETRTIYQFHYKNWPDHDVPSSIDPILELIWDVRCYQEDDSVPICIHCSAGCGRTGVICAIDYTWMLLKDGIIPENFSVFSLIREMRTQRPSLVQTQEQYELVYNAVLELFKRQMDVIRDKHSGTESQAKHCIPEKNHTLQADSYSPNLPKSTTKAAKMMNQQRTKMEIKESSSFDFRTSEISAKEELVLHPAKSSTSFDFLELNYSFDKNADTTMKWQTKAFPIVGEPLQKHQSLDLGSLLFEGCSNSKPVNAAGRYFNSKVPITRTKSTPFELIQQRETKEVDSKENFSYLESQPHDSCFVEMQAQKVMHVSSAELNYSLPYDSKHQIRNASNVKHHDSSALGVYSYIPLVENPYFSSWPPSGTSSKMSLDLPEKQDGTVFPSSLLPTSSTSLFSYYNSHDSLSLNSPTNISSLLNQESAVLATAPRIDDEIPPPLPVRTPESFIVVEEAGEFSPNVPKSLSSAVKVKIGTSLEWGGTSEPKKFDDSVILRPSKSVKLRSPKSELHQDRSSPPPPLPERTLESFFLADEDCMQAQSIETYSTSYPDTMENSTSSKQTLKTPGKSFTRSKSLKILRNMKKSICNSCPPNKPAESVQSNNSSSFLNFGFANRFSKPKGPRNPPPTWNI
Dual specificity protein phosphatase 6, sequence (Q64346 whole entry): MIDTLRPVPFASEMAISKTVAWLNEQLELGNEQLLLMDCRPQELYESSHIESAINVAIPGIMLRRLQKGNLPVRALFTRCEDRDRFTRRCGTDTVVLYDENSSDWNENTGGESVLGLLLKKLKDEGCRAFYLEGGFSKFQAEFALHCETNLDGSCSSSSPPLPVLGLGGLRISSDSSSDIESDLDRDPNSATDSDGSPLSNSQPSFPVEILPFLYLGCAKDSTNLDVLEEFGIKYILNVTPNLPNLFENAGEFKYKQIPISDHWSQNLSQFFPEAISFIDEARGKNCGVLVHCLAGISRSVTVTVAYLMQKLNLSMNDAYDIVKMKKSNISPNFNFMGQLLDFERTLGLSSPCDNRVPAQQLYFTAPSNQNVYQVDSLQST
Tyrosine-protein phosphatase non-receptor type 12, sequence (Q05209 whole entry): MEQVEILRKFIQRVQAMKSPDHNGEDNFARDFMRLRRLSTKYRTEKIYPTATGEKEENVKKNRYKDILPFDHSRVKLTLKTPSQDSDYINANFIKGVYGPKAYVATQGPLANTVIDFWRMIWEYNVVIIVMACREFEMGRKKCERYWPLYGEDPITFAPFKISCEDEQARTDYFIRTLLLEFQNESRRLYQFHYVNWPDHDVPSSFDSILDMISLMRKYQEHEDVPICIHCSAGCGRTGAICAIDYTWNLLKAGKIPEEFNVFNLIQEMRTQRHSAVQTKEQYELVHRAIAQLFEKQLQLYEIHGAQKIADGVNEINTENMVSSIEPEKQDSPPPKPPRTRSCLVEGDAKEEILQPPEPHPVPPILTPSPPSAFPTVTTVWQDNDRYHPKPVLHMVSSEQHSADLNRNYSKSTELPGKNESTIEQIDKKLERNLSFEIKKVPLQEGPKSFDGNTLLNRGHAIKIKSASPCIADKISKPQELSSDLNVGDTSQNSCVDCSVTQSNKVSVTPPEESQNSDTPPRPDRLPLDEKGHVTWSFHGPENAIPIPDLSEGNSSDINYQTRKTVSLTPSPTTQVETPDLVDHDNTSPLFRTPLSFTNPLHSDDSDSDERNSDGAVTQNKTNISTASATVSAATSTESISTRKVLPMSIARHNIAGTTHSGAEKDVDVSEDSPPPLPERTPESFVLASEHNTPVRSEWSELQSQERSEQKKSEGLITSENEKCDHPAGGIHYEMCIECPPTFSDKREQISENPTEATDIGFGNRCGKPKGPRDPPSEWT

## Cc1ccc(C(=O)Cn2cc(-c3ccc(C)cc3)[n+]3c2CCCCC3)cc1
A-375
  AC50: 40.5 µM (active)
[1]
  EC50: 85.7 µM (active)
BJ [2]
  EC50: > 150 µM (not active)
BJ [3]
  EC50: 17.3 µM (active)
BJ [4]
  EC50: > 150 µM (not active)
[5]
  IC50: > 80 µM (inactive)
[6]
  EC50: 1.32 µM (active)
[7]
  AC50: 3.63 µM (active)
INS1
  AC50: 1.3 µM (active)
[8]
  EC50: > 150 µM (inactive)

## CC(C)(Oc1ccc2sc3ccccc3c2c1)C(=O)O
[9]
  IC50: 0.45 µM (active)
[10]
  IC50: 77.5 µM (active)
[11]
  IC50: 83.8 µM (active)
[12]
  IC50: 9.45 µM (active)
[13]
  IC50: > 99 µM (inactive)
[14]
  IC50: 30.2 µM (active)

## Cc1cc(N2CCOc3ccccc32)nc2ccccc12
[15]
  IC50: 24.5 µM (active)
[16]
  IC50: 12 µM (active)

## CC1CC(C)CN(c2ncc3c(n2)CC(c2ccccc2Cl)CC3=O)C1 (centres undefined)
[17]
  AC50: 30.2 µM (active)
[18]
  EC50: 7.25 µM (active)
Streptococcus [19]
  EC50: > 150 µM (not active)
Streptokinase A
  EC50: 10.2 µM (active)
[20]
  AC50: 4.15 µM (active)
Streptococcus [21]
  EC50: > 500 µM (not active)
